Reference: patent publication US9193978B2, “Production of alkenes by combined enzymatic conversion of 3-hydroxyalkanoic acids” (Scientist of Fortune, S.A., priority 2010, dated 2015)
One block for each molecule: values may come before it.

Key:
[1] = biological target: T1, Picrophilus torridus MDP decarboxylase, SEQ ID NO: 1 (Picrophilus torridus, UniProt Q6KZB1); test: Phosphotransferase activity (ADP release from 3-hydroxyisovalerate and ATP), pyruvate kinase/lactate dehydrogenase coupled assay; type: biochemical; details: 40° C., pH 7.0, 5 mM ATP, 0-50 mM HIV
T1 construct: His6 (inserted after the initiator methionine) (N); made in house; host or cells: Escherichia coli BL21(DE3)
T1 sequence (Q6KZB1 1-324): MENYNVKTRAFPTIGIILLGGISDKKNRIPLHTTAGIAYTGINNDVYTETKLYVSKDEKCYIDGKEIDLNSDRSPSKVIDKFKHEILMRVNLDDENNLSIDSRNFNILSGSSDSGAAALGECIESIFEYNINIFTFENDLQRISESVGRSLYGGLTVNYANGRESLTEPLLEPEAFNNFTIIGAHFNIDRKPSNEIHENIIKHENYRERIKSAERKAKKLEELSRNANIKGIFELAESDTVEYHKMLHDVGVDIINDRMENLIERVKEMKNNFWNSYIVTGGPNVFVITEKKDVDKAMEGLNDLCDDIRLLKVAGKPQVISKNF
Source text: FIG. 12: Isobutene production from 3-hydroxyisovalerate in the following assays: • Without enzyme • In the presence of S. mitis MDP decarboxylase (SEQ ID NO:10) • In the presence of Th. acidophilum MDP decarboxylase (SEQ ID NO:2) • In the presence of both Th. acidophilum (SEQ ID NO:2) and S. mitis (SEQ ID NO:10) enzymes.
(§1) The release of ADP that is associated with IBN production from HIV was quantified using the pyruvate kinase/lactate dehydrogenase coupled assay (FIG. 10). The MDP decarboxylases from P. torridus (SEQ ID NO:1), Th. Acidophilum (SEQ ID NO:2), S. infantarius (SEQ ID NO:7), S. mitis (SEQ ID NO:10) were evaluated for their ability to phosphorylate HIV, releasing ADP.
(§2) The studied enzymatic reaction was carried out under the following conditions at 40° C.:
(§3) 0.5 mM Phosphoenolpyruvate
(§4) 3 U/ml Lactate dehydrogenase
(§5) 0-50 mM 3-Hydroxyisovalerate (HIV)
(§6) The pH was adjusted to 7.0.
(§7) Each assay was started by addition of particular enzyme (at a concentration from 0.05 to 1 mg/ml) and the disappearance of NADH was monitored by following the absorbance at 340 nm.
(§8) Assays with MDP decarboxylases from the P. torridus phylum as well from the Streptococcus genus gave rise to a reproducible increase in ADP production in the presence of HIV.

[2] = biological target: T2, Thermoplasma acidophilum MDP decarboxylase, SEQ ID NO: 2 (Thermoplasma acidophilum, UniProt Q9HIN1); test: as above; type: biochemical; details: 40° C., pH 7.0, 5 mM ATP, 0-50 mM HIV
T2 construct: Th; His6 (inserted after the initiator methionine) (N); made in house; host or cells: Escherichia coli BL21(DE3)
T2 sequence (Q9HIN1 1-318): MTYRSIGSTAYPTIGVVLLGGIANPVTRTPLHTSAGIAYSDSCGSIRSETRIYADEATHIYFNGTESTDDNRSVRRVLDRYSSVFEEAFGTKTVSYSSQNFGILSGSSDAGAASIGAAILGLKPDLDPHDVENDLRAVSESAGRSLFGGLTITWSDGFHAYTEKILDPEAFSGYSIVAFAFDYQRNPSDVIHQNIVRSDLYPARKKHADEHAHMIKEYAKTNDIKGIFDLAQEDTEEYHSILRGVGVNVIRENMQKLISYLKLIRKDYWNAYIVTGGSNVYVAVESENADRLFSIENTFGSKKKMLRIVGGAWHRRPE
Method: as §1, §2, §3, §4, §5, §6, §7, §8

[3] = biological target: T3, Streptococcus mitis MDP decarboxylase, SEQ ID NO: 10 (Streptococcus mitis, UniProt A0ACG7RFV4); test: Kinetic parameters of isobutene production from 3-phosphonoxyisovalerate (GC); type: biochemical; details: pH 7.5, 37° C., 44 h, 40 mM ATP, 0-100 mM 3-phosphonoxyisovalerate
Method: The kinetic parameters of isobutene production were measured under the following conditions:
0-100 mM 3-phosphonoxyisovalerate
(§9) The pH was adjusted to 7.5
The reaction was initiated by addition of 1 mg of purified MDP decarboxylase from S. mitis (SEQ ID NO:10) to 0.5 ml of reaction mixture. The mixture was then incubated without shaking at 37° C. for 44 h in a sealed vial of 2 ml (Interchim).
(§10) One ml of the gaseous phase was collected and injected into a Varian 430-GC gas chromatograph equipped with an FID detector and a CP SilicaPlot column (Varian). Commercial isobutene was used as reference.

[4] = biological target: T3, Streptococcus mitis MDP decarboxylase, SEQ ID NO: 10; test: Effect of ATP on isobutene production from 3-phosphonoxyisovalerate (GC); type: biochemical; details: 10 mM ATP vs 0 mM ATP, 25 mM PIV, pH 7.5, 37° C., 26 h
Method: The assays of isobutene production were carried out under the following conditions:
0 mM ATP (assay No1 and No2)
10 mM ATP (assay No3 and No4)
25 mM 3-phosphonoxyisovalerate
as §9
The reaction was initiated by addition of 2 mg of purified MDP decarboxylase from S. mitis (SEQ ID NO:10) to 0.5 ml of reaction mixture. Control reactions were run in the absence of enzyme (assays No1 and No3).
The mixture was incubated without shaking at 37° C. for 26 h in a sealed vial of 2 ml (Interchim).
as §10

[5] = substrate: CC(C)(O)CC(=O)O; test: Phosphotransferase activity (ADP release from 3-hydroxyisovalerate and ATP), pyruvate kinase/lactate dehydrogenase coupled assay; type: biochemical, Streptococcus infantarius; details: other: 40° C., pH 7.0, 5 mM ATP, 0-50 mM HIV
Method: as §1, §2, §3, §4, §5, §6, §7, §8

Km [1]: 9.17 mM
Km [2]: 4.02 mM
Molecule: CC(C)(O)CC(=O)O [3-hydroxyisovalerate]

Molecule: CC(C)(CC(=O)O)OP(=O)(O)O [3-phosphonoxyisovalerate]
Km [3]: > 60 mM
kcat [3]: at least 1.3×10^−3 sec^−1

Molecule: Nc1ncnc2c1ncn2[C@@H]1O[C@H](COP(=O)(O)OP(=O)(O)OP(=O)(O)O)[C@@H](O)[C@H]1O [ATP]
increase of isobutene production from 3-phosphonoxyisovalerate (PIV) on addition of ATP [4]: 120 fold

B1: Streptococcus infantarius MDP decarboxylase, SEQ ID NO: 7 (Streptococcus infantarius subsp. infantarius ATCC BAA-102) (protein)
chain: MDRKIVTVKSYANIAIIKYWGKADAAKMIPATSSISLTLENMFTTTSVSFLPDSASHDEFYINGVLQDDKEHAKISAIIDQYRGQRSEYVKVETSNNMPTAAGLSSSSSGLSALVKACNELFETGLTRAELAQKAKFASGSSSRSFFGPLAAWDKDSGEVYPVQTDLKLAMIMLVLSDSKKSISSREGMKRCVETSTTFADWVKQSEQDYKDMLGYLKNNDFERVGELTERNALAMHDTNTHANPPFNYLTEESYKAMEFVKQLRSEGEKCYFTMDAGPNVKVLCLEEDLERLTKRFEENYRVIVSRTKEL
Km [5]: 13.4 mM
kcat [5]: 0.03 s⁻¹
kcat/Km [5]: 2 M⁻¹ s⁻¹
